The source of these data is patent US5620959A, “Bombesin antagonists” (Glaxo Wellcome Inc., priority 1990, dated 1997).

The target of this assay is 3T3 ROZ cells (Mus musculus, UniProt P21729). Briefly: Inhibition of bombesin-stimulated mitogenesis (3H-thymidine uptake) of quiescent 3T3 ROZ cells. The class given is cell-based. To be noted: compared with the peptide from the other stereoisomer at the hydroxy position; test not named at b235.
Chain of 3T3 ROZ cells (P21729 whole entry): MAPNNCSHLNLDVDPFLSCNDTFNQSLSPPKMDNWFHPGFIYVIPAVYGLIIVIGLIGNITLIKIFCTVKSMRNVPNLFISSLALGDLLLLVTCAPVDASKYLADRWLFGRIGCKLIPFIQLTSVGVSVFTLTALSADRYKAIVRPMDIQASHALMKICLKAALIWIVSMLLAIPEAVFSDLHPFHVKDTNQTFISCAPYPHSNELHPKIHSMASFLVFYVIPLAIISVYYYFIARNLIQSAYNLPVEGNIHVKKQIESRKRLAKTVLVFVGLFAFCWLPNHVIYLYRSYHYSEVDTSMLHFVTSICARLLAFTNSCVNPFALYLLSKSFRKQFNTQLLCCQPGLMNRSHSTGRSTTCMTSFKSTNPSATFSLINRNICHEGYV

Protocol: Antagonistic activity was measured by inhibition of the mitogenic stimulation of quiescent 3T3 ROZ cells. […] Cells were incubated for eighteen hours with 10 ng/mL of BN either alone or in the presence of an antagonist. Cells were then pulsed-labeled for 2 hours with ^3 H-thymidine and washed. The incorporated ^3 H was then counted.
Potency of antagonists was measured by inhibition of this maximum response down to baseline level. IC50 values were determined from titration curves.

For the molecule `CC(C)[C@H](NC(=O)[C@H](C)NC(=O)[C@H](Cc1c[nH]c2ccccc12)NC(=O)[C@H](Cc1c[nH]cn1)NC(=O)CCc1ccccc1)C(=O)N[C@H](C)C(=O)N[C@@H](Cc1c[nH]cn1)C(=O)N1CCC[C@@H]1C(O)CC(=O)N[C@@H](Cc1ccccc1)C(N)=O` (single isomer, unassigned) [N--((3-Phenyl)Propionyl)--HisTrpAlaVal D--AlaHis(3-(2-Pyrrolidinyl-3Hydroxy)Propionyl)--Phe--NH2], the “relative activity of the two peptides made from the two hydroxy stereoisomers” value is “the more active of the two”.
